Literature values, collected in publication PMC8537947, “Improved Radiolytic Stability of a ^68Ga-labelled Collagelin Analogue for the Imaging of Fibrosis” (Pharmaceuticals, 2021).

Assays:
[1] = target: collagen I; conditions: initial cyclic peptide analogues, earlier work of the authors; cited from earlier work
Description: One of the targets for radioactive imaging agents is type I collagen which is the most abundant extracellular matrix protein [1, 2, 3, 4, 5, 6]. Collagelin, a cyclic peptide identified from the bacterial peptide library, presumably binds selectively to the triple helix structure of collagen. The aim of this study was to develop a PET tracer for the specific imaging of early active fibrosis via binding to monomer collagen. The uptake in bone, skin and other tissues rich in collagen cross-linked fibrils, and in diseased sites with established, mature collagen was expected to be low, ...

[2] = system: frozen sections of dog heart affected by fibrosis; conditions: cited from earlier work
Description: The presence of excessive deposition of collagen was confirmed previously performing a Sirius Red histological assay on the adjacent tissue sections. The uptake of [^68Ga]Ga-NO2A-[Nle^13]-Col in the fibrotic tissue linearly correlated (R^2 = 0.84, Figure 2C) with the scoring of fibrosis, indicating a target density ranging between ...

For “c[CPGRVXHGLHLGDDEGPC] (disulfide) [[^68Ga]Ga-NO2A-Col]”, the Kd [1] is listed as 2300 ± 800 nM and the target density [2] is listed as 2.0 fmol/mm^3.
